PMC6358021 (European journal of medicinal chemistry, 2018)

Legend:
human Smo = conditions: HEK293 cells that stably express human Smo; cited from earlier work
[1] = tested on: Gli1 mRNA expression in ASZ cells; test: Hh inhibition: down-regulation of endogenous Gli1 mRNA expression in ASZ cells; type: cell-based, murine
P-glycoprotein (Pgp) = P-glycoprotein (Pgp) (Homo sapiens, UniProt P08183); test: P-glycoprotein substrate assessment; type: in vitro ADME; conditions: CRO service (Pharmaron or Cyprotex)
CYP3A4 = CYP3A4 (Homo sapiens, UniProt P08684); test: CYP3A4 inhibition; type: in vitro ADME; conditions: removal of the triazole moiety
CYP3A4, sequence (P08684 whole entry): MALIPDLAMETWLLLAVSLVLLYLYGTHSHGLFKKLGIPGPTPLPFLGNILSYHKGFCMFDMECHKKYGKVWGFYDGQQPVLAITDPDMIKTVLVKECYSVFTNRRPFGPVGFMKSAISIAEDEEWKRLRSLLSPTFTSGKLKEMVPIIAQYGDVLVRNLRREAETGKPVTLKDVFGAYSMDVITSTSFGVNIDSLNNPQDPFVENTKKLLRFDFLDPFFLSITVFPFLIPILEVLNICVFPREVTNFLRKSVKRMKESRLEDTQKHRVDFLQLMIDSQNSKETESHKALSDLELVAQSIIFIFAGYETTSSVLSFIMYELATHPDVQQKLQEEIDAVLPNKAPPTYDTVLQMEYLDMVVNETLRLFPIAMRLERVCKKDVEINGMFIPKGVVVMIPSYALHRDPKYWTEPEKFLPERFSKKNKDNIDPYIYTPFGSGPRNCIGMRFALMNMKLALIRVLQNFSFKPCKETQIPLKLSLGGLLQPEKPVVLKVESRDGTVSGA

P-glycoprotein (Pgp), sequence (P08183 whole entry): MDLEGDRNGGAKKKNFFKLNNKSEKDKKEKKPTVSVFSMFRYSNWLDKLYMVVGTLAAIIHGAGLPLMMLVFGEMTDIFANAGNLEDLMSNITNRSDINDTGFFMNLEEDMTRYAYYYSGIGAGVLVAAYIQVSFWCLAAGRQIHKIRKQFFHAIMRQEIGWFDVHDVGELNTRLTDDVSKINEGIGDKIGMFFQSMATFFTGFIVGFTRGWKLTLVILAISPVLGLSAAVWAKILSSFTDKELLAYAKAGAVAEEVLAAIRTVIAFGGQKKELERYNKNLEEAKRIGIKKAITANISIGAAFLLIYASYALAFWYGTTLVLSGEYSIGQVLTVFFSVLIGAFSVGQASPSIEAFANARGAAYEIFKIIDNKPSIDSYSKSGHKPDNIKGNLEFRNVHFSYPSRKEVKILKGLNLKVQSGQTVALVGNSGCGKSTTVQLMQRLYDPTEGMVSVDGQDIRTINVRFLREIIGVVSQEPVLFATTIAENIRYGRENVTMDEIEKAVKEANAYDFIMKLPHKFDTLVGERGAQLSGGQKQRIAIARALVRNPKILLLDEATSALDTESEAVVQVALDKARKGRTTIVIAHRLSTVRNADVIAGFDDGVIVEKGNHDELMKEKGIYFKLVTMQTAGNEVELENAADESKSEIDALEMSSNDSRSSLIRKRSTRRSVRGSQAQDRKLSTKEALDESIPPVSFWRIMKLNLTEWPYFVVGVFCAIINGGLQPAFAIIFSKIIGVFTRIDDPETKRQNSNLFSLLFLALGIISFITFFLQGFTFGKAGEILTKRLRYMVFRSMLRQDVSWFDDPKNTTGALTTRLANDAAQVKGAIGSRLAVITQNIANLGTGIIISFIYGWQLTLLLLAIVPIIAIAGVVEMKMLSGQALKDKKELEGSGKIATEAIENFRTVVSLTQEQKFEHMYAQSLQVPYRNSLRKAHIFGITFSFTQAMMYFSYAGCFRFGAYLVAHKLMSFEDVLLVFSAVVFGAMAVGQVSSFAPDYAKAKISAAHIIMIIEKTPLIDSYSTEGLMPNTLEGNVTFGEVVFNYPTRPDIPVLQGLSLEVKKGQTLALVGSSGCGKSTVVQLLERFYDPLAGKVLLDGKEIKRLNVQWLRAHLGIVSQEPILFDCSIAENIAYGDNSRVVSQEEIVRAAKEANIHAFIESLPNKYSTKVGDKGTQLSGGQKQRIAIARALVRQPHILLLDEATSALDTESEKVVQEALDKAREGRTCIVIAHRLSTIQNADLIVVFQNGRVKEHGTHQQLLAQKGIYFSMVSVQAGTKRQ

SMILES: CCC(C)n1ncn(-c2ccc(N3CCN(c4ccc(OCC5COC(Cn6cncn6)(c6ccc(Cl)cc6Cl)O5)cc4)CC3)cc2)c1=O (stereo not drawn) [ITZ, itraconazole]
- displacement of a tritiated Smo antagonist (human Smo): significantly displaced

SMILES: CC1(c2ccc(Cl)cc2Cl)OCC(COc2ccc(N3CCN(c4ccc(-n5cnn(CCC(=O)O)c5=O)cc4)CC3)cc2)O1 (stereo not drawn) [analogue 21, 3-(4-(4-(4-(4-((2-(2,4-dichlorophenyl)-2-methyl-1,3-dioxolan-4-yl)methoxy)phenyl)piperazin-1-yl)phenyl)-5-oxo-4,5-dihydro-1H-1,2,4-triazol-1-yl)propanoic acid]
- fold more active than 19 [1]: approximately 2 fold

SMILES: CC[C@@H](C)n1ncn(-c2ccc(N3CCN(c4ccc(OC[C@@H]5CO[C@@](C)(c6ccc(F)cc6F)C5)cc4)CC3)cc2)c1=O [analogue 1, 2-((R)-sec-butyl)-4-(4-(4-(4-(((3R,5R)-5-(2,4-difluorophenyl)-5-methyltetrahydrofuran-3-yl)methoxy)phenyl)-piperazin-1-yl)phenyl)-2,4-dihydro-3H-1,2,4-triazol-3-one]
- P-gp Substrate (P-glycoprotein (Pgp)): not a substrate
- fold more potent than PSZ ([1]; ratio of IC50 values): approximately 2.5 fold
- ability to inhibit Cyp3A4, in words (CYP3A4): completely abolished

SMILES: CC[C@@H]([C@H](C)O)n1ncn(-c2ccc(N3CCN(c4ccc(OC[C@@H]5CO[C@@](Cn6cncn6)(c6ccc(F)cc6F)C5)cc4)CC3)cc2)c1=O [PSZ, Posaconazole, reference compound]
- P-gp Substrate (P-glycoprotein (Pgp)): identified as a substrate
